Laboratory results reported in ChEMBL document CHEMBL5214910, “Rational Design of Dipicolylamine-Containing Carbazole Amphiphiles Combined with Zn2+ as Potent Broad-Spectrum Antibacterial Agents with a Membrane-Disruptive Mechanism” (J Med Chem, 2021).
In brackets after ≈: the same amount, converted by molar mass. Activity calls are given as the source filed them. The rule behind the calls is not given here.

Columns and labels:
Acinetobacter baumannii [1] = assay: Antibacterial activity against Acinetobacter baumannii ATCC 17978 assessed as inhibition of bacterial growth by measuring salt resistance incubated for 24 hrs in the presence of 12.5 ug/ml Zn2+ and 3220 ug/ml Na+ by Muller hinton broth based dilution assay; type: functional
Lipopolysaccharide (LPS) [2] = assay: Displacement of BODIPY-TR-cadaverin from Pseudomonas aeruginosa Lipopolysaccharide at 4 times of MIC incubated for 30 mins by fluorescence based microplate reader analysis relative to control
Staphylococcus aureus [3] = assay: Antibacterial activity against Staphylococcus aureus ATCC 29213 assessed as inhibition of bacterial growth by measuring salt resistance incubated for 24 hrs in the presence of 12.5 ug/ml Zn2+ and 24.3 ug/ml Mg2+ by Muller hinton broth based dilution assay; type: functional
Staphylococcus aureus [4] = assay: Antibacterial activity against Staphylococcus aureus ATCC 29213 assessed as inhibition of bacterial growth incubated for 24 hrs in the presence of 50 ug/mL Zn2+ by Muller hinton broth based dilution assay; type: functional
[5] = Hemolytic activity in rabbit RBC incubated for 1 hrs by fluorescence based microplate reader assay; type: toxicity, cell-based, Oryctolagus cuniculus, Erythrocyte; conditions: rabbit red blood cells (erythrocytes)
Cell membrane [6] = assay: Induction of cell membrane […] in Escherichia coli ATCC 25922 assessed as increase in fluorescence intensity at 2 times to 8 times of MIC measured for 1 hrs in the presence of 12.5 ug/ml Zn2+ by […] dye based assay; type: subcellular
Acinetobacter baumannii [7] = assay: Antibacterial activity against Acinetobacter baumannii ATCC 17978 assessed as inhibition of bacterial growth by measuring salt resistance incubated for 24 hrs in the presence of 12.5 ug/ml Zn2+ and 24.3 ug/ml Mg2+ by Muller hinton broth based dilution assay; type: functional
Lipopolysaccharide (LPS) [8] = assay: Displacement of BODIPY-TR-cadaverin from Pseudomonas aeruginosa Lipopolysaccharide at 16 times of MIC incubated for 30 mins by fluorescence based microplate reader analysis relative to control
Lipopolysaccharide (LPS) [9] = assay: Displacement of BODIPY-TR-cadaverin from Pseudomonas aeruginosa Lipopolysaccharide at 1 times of MIC incubated for 30 mins by fluorescence based microplate reader analysis relative to control
Staphylococcus aureus [10] = assay: Antibacterial activity against Staphylococcus aureus ATCC 29213 assessed as log reduction in bacterial count at 8 times of MIC incubated for 30 mins in the presence of 12.5 ug/ml Zn2+ by Muller hinton agar based time kill assay; type: functional; conditions: 0.5 h
Lipopolysaccharide (LPS) [11] = assay: Displacement of BODIPY-TR-cadaverin from Pseudomonas aeruginosa Lipopolysaccharide at 1 times of MIC incubated for 30 mins in the presence of 12.5 ug/ml Zn2+ by fluorescence based microplate reader analysis relative to control
Staphylococcus aureus [12] = assay: Antibacterial activity against Methicillin-resistant Staphylococcus aureus N315 assessed as inhibition of bacterial growth incubated for 24 hrs in the presence of 12.5 ug/mL Zn2+ by Muller hinton broth based dilution assay; type: functional
Escherichia coli [13] = assay: Antibacterial activity Escherichia coli ATCC 25922 assessed as inhibition of bacterial growth incubated for 24 hrs in the presence of 0.78 ug/mL Zn2+ by Muller hinton broth based dilution assay; type: functional
Pseudomonas aeruginosa [14] = assay: Antibacterial activity Pseudomonas aeruginosa ATCC 9027 assessed as inhibition of bacterial growth incubated for 24 hrs in the presence of 6.25 ug/mL Zn2+ by Muller hinton broth based dilution assay; type: functional
Staphylococcus aureus [15] = assay: Antibacterial activity against Methicillin-resistant Staphylococcus aureus NCTC10442 assessed as inhibition of bacterial growth incubated for 24 hrs by Muller hinton broth based dilution assay; type: functional
Staphylococcus aureus [16] = assay: Antibacterial activity against Staphylococcus aureus ATCC 29213 in cyclophosphamide immunosuppressed C57BL/6 mouse model of bacterial keratitis assessed as log reduction in viable bacterial count in infected cornea at 0.5 % pre-infected with bacteria for 24 hrs followed by topical administration of compound four times a day for 3 days in the presence of 12.5 ug/ml of Zn2+; type: functional; conditions: route top, time 3 day
Lipopolysaccharide (LPS) [17] = assay: Displacement of BODIPY-TR-cadaverin from Pseudomonas aeruginosa Lipopolysaccharide at 8 times of MIC incubated for 30 mins in the presence of 12.5 ug/ml Zn2+ by fluorescence based microplate reader analysis relative to control
Pseudomonas aeruginosa [18] = assay: Antibacterial activity Pseudomonas aeruginosa ATCC 9027 assessed as inhibition of bacterial growth incubated for 24 hrs by Muller hinton broth based dilution assay; type: functional
Escherichia coli [19] = assay: Antibacterial activity against Escherichia coli ATCC 25922 assessed as inhibition of bacterial growth by measuring salt resistance incubated for 24 hrs in the presence of 12.5 ug/ml Zn2+ and 3220 ug/ml Na+ by Muller hinton broth based dilution assay; type: functional
Staphylococcus aureus [20] = assay: Antibacterial activity against Methicillin-resistant Staphylococcus aureus NCTC10442 assessed as inhibition of bacterial growth by measuring salt resistance incubated for 24 hrs in the presence of 12.5 ug/ml Zn2+ and 24.3 ug/ml Mg2+ by Muller hinton broth based dilution assay; type: functional
Staphylococcus aureus [21] = assay: Antibacterial activity against Methicillin-resistant Staphylococcus aureus NCTC10442 assessed as inhibition of bacterial growth incubated for 24 hrs in the presence of 12.5 ug/mL Zn2+ by Muller hinton broth based dilution assay; type: functional
Lipopolysaccharide (LPS) [22] = assay: Displacement of BODIPY-TR-cadaverin from Pseudomonas aeruginosa Lipopolysaccharide at 16 times of MIC incubated for 30 mins in the presence of 12.5 ug/ml Zn2+ by fluorescence based microplate reader analysis relative to control
Pseudomonas aeruginosa [23] = assay: Antibacterial activity Pseudomonas aeruginosa ATCC 9027 assessed as inhibition of bacterial growth incubated for 24 hrs in the presence of 0.39 ug/mL Zn2+ by Muller hinton broth based dilution assay; type: functional
Escherichia coli [24] = assay: Antibacterial activity against Escherichia coli ATCC 25922 assessed as log reduction in bacterial count at 8 times of MIC incubated for 30 mins in the presence of 12.5 ug/ml Zn2+ by Muller hinton agar based time kill assay; type: functional; conditions: 0.5 h
Escherichia coli [25] = assay: Antibacterial activity against Escherichia coli ATCC 25922 assessed as inhibition of bacterial growth by measuring salt resistance incubated for 24 hrs in the presence of 12.5 ug/ml Zn2+ and 100 ug/ml Ca2+ by Muller hinton broth based dilution assay; type: functional
Staphylococcus aureus [26] = assay: Antibacterial activity against Methicillin-resistant Staphylococcus aureus NCTC10442 assessed as inhibition of bacterial growth incubated for 24 hrs in the presence of 6.25 ug/mL Zn2+ by Muller hinton broth based dilution assay; type: functional
Acinetobacter baumannii [27] = assay: Antibacterial activity against Acinetobacter baumannii R2889 assessed as inhIbition of bacterial growth incubated for 24 hrs in the presence of 12.5 ug/mL Zn2+ by Muller hinton broth based dilution assay; type: functional
Staphylococcus aureus [28] = assay: Antibacterial activity against Staphylococcus aureus ATCC 29213 assessed as inhibition of bacterial growth incubated for 24 hrs by Muller hinton broth based dilution assay; type: functional
Staphylococcus aureus [29] = assay: Antibacterial activity against Methicillin-resistant Staphylococcus aureus NCTC10442 assessed as inhibition of bacterial growth incubated for 24 hrs in the presence of 3.125 ug/mL Zn2+ by Muller hinton broth based dilution assay; type: functional
Cell membrane [30] = assay: Disruption of cell membrane integrity in Staphylococcus aureus ATCC 29213 assessed as increase in fluorescence intensity at 2 times to 8 times of MIC measured for 1 hrs in the presence of 12.5 ug/ml Zn2+ by SYTOX green dye based assay; type: subcellular; conditions: DDE = dose-dependent effect

CC(C)=CCn1c2ccccc2c2c(OCC(O)CN(Cc3ccccn3)Cc3ccccn3)cccc21 (stereo not given)
MIC (Acinetobacter baumannii [1]): 0.78 µg/mL | Activity (Lipopolysaccharide (LPS) [2]): -0.56% | MIC (Staphylococcus aureus [3]): 1.56 µg/mL | MIC (Staphylococcus aureus [4]): 0.78 µg/mL | HC50 at 1 h [5]: > 200 µg/mL | Activity (Cell membrane [6]): Active | MIC (Acinetobacter baumannii [7]): 1.56 µg/mL | Activity (Lipopolysaccharide (LPS) [8]): 2.47% | Activity (Lipopolysaccharide (LPS) [9]): -0.28% | log(activity) (Staphylococcus aureus [10]): 4.22 | Activity (Lipopolysaccharide (LPS) [11]): 20.8% | MIC (Staphylococcus aureus [12]): 0.78 µg/mL | MIC (Escherichia coli [13]): 6.25 µg/mL | MIC (Pseudomonas aeruginosa [14]): 3.12 µg/mL | MIC (Staphylococcus aureus [15]): 1.56 µg/mL (≈ 3.08 µM) | log(activity) (Staphylococcus aureus [16]): 6.5 | Activity (Lipopolysaccharide (LPS) [17]): 83.4% | MIC (Pseudomonas aeruginosa [18]): > 50 µg/mL | MIC (Escherichia coli [19]): 3.12 µg/mL | MIC (Staphylococcus aureus [20]): 1.56 µg/mL | MIC (Staphylococcus aureus [21]): 1.56 µg/mL | Activity (Lipopolysaccharide (LPS) [22]): 91% | MIC (Pseudomonas aeruginosa [23]): > 50 µg/mL | log(activity) (Escherichia coli [24]): 3.59 | MIC (Escherichia coli [25]): 6.25 µg/mL | MIC (Staphylococcus aureus [26]): 0.78 µg/mL | MIC (Acinetobacter baumannii [27]): 1.56 µg/mL | MIC (Staphylococcus aureus [28]): 3.12 µg/mL (≈ 6.17 µM) | MIC (Staphylococcus aureus [29]): 1.56 µg/mL | Activity (Cell membrane [30]): Dde
